Source: US20130079274A1, “PHARMACEUTICAL COMPOSITIONS FOR TREATING DYSREGULATED INFLAMMATORY DISEASES” (priority 2009, published 2013)
Ends that are not written are not given here.

Columns and labels:
[1] = system: sepsis, septic shock and MODS; conditions: patients with sepsis; cited from earlier work
peritoneal macrophages = assay: Cytokine and chemokine secretion of isolated peritoneal macrophages after CLP; conditions: cells isolated 24 h after CLP, cultured 24 h; vs control, p>0.05
Procedure: The control group received saline as vehicle, the study group was substituted with 4 μg/kg MALP-2 i.p simultaneously to cecal ligation and puncture (CLP). All animals underwent CLP for induction of polymicrobial sepsis.
Peritoneal macrophages were isolated by lavage of the peritoneal cavity with 3×5 ml PBS containing 10 IU/ml heparin (Ratiopharm) 24 hours after CLP. Thereafter, cells were washed once with PBS and centrifuged at 400×g for 15 minutes at 4° C. The pellet was resuspended in 5 ml RPMI (Biochrom) containing 10% FCS and antibiotics (50 U/ml penicillin, 50 μg/ml streptomycin, Invitrogen; 2.5 μg/ml Amphotericin B, Biochrom). 106 cells were plated in a 24-well plate and incubated for 24 hours at 37° C., 95% humidity, and 5% CO2. At the end of the incubation period, the supernatants were removed and stored at −80° C. until analysis was performed.
Cytokine and chemokines in plasma and cell culture supernatant were measured with Multiplex and Simplex Kits according to manufacturer's instructions (BenderMed Systems, Vienna, Austria).

sepsis-related mortality = conditions: pretreatment four days before sepsis induction; cited from earlier work
[2] = system: CLP-induced polymicrobial sepsis; assay: Activity score after CLP; format: in vivo, C57BL/6-mice; conditions: 4 μg/kg i.p. simultaneously to CLP, vs control
Procedure: The surgical procedure was as follows: the cecum was exposed after a midline laparotomy and ligated distal to the ileocecal valve. Subsequently, the cecum was punctured twice using a 21 G needle and was returned to the abdominal cavity. The model also includes the protrusion of contents of the cecum to assure the presence of bacteria in the peritoneum. The closure of the abdomen was performed with double layer sutures. Data were obtained 4, 24 and 96 hours after surgery. Clinical data concerning mortality and activity were obtained once daily until 96 hours after instrumentation.
As a measure for clinical status, activity of mice was analyzed by using a previously established scoring system, see table 1. Within this score, the spontaneous activity, spontaneous food intake and response to exogenous stimuli was analyzed. The scoring of each animal (from 1=moribund to 6=very active) was independently performed in a blinded fashion by two persons and the mean of both values was recorded.

[3] = system: CLP-induced polymicrobial sepsis; assay: Mortality after cecal ligation and puncture (CLP) polymicrobial sepsis; format: in vivo, C57BL/6-mice; conditions: over 96 h
Excerpt: Maintenance and use of the animals were in accord with the German Animal Welfare Legislation. All experiments were approved by the local institutional animal care and research advisory committee and permitted by the local government of Lower Saxony (Germany). 47 male C57BL/6-mice (Charles River, Germany) with a weight of 20±3 g were used for the study. All animals were handled at room temperature for 14 days before treatment. Animals were maintained under standardized conditions with a controlled environment at 21±2° C., relative humidity of 50% and artificial light (14 hours light, 10 hours dark). They received a commercial pellet diet (altromin 1317) and water ad libitum. Analgetic treatment was performed in all animals (200 mg/kg body weight (BW) metamizol-sodium, Novalgin®, Hoechst, Unterschleiβheim, Germany) throughout the study.
All surgical procedures were performed after deeply anaesthetizing the animals with isoflurane. The mice were warmed to 36° C. using infrared warming lamps after having finished the surgical procedures. All mice received once daily subcutaneous injections of 1 ml sterile ringer's lactate for fluid replacement.
The surgical procedure was as follows: the cecum was exposed after a midline laparotomy and ligated distal to the ileocecal valve. Subsequently, the cecum was punctured twice using a 21 G needle and was returned to the abdominal cavity. […]

Substance | reduction of death of affected patients [1] | IL-6, IL-10, TNF-α, MCP-1, MCP-3 or GM-CSF of peritoneal macrophages (peritoneal macrophages) | protection against sepsis-related mortality (sepsis-related mortality) | activity rates (activity score, table 1) ([2]; 24 to 72 hours following CLP, p<0.05) | activity rates (activity score, table 1) ([2]; after 96 hours) | total mortality ([3]; 4 μg/kg BW i.p. simultaneously to CLP, control 62.5%, p=0.031) | mortality ([3]; MALP-2 i.p. 6 hours following CLP, p=0.047 vs vehicle)
activated protein C | 6.1% | – | – | – | – | – | –
Macrophage-activating lipopeptide-2 (GNNDESNISFKEK; not fully specified) [MALP-2] | – | No differences | partial protection | increased | comparable between both groups | 12.5% | 22.2%
